Assay [1] is filed under the species Homo sapiens. Put plainly: Inhibition of LTB4 biosynthesis at 1 uM, in calcium ionophore-stimulated human whole blood leukocyte (HBL) assay. It is filed as functional.
For assay [2], the species on record is Homo sapiens. Put plainly: Compound at 10 uM was tested in vitro for the inhibition of LTB4 biosynthesis in calcium ionophore-stimulated human whole blood leukocyte (HBL) assay. The format is functional.
Assay [3] deals with Rattus norvegicus. In words: Ex vivo inhibitory activity at an peroral dose of 25 mg/Kg against LTB4 biosynthesis in rat blood, after pretreatment period of 3h. It is filed as functional. The conditions noted are these: po.
In assay [4] the test system is Rattus norvegicus. Put plainly: Activity against LTB4 biosynthesis in the rat RPAR pleurisy model po (25 mg/kg). The format is functional.
In assay [5] the target is T1, Polyunsaturated fatty acid 5-lipoxygenase (Rattus norvegicus) (UniProt P12527).
T1 sequence (whole entry): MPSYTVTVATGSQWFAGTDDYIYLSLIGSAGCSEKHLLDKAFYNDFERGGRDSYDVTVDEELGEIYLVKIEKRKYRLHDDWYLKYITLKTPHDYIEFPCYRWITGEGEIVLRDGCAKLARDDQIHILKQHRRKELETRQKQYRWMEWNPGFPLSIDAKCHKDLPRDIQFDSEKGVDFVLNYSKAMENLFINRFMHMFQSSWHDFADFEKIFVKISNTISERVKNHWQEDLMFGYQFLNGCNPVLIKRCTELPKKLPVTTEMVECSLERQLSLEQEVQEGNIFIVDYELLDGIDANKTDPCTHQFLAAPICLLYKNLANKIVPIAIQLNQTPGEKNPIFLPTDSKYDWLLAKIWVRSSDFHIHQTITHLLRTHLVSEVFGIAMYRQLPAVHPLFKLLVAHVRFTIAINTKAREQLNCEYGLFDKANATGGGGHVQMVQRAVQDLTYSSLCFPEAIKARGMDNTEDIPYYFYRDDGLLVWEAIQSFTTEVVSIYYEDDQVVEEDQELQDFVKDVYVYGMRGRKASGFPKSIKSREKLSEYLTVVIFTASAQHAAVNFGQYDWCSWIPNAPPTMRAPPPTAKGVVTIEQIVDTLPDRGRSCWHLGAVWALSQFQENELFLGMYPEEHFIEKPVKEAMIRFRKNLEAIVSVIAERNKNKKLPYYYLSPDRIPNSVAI
In words: Ex vivo inhibitory activity at an peroral dose of 10 mg/Kg against LTB4 biosynthesis in rat blood, after pretreatment period of 6 hr. The format is functional.

Assay [6] deals with T1, Polyunsaturated fatty acid 5-lipoxygenase (Rattus norvegicus). Put plainly: Ex vivo inhibitory activity at an peroral dose of 10 mg/Kg against LTB4 biosynthesis in rat blood, after pretreatment period of 3h. It is filed as functional.
Assay [7] has the same target. Put plainly: Activity against LTB4 biosynthesis in the rat RPAR pleurisy model po (10 mg/kg). The format is functional, organism-based.
Assay [8] concerns Rattus norvegicus. In words: Ex vivo inhibitory activity at an peroral dose of 5 mg/Kg against LTB4 biosynthesis in rat blood, after pretreatment period of 6 hr. The format is functional. Particulars: po.
For assay [9], the species on record is Rattus norvegicus. Put plainly: Ex vivo oral effective dose against LTB4 biosynthesis in rat blood, after pretreatment period of 3h. It is filed as functional.
The species named for assay [10] is Homo sapiens. In words: In vitro inhibitory concentration against LTB4 biosynthesis in calcium ionophore-stimulated human whole blood leukocyte (HBL) assay. It is filed as functional.
The subject of assay [11] is Cavia porcellus. In words: Intravenous effective dose against antigen induced bronchoconstriction in the guinea pig. The format is functional.
For assay [12], the species on record is Cavia porcellus. In words: Oral effective dose against antigen induced bronchoconstriction in the guinea pig. It is filed as functional.
Assay [13] is filed under the species Rattus norvegicus. In words: Oral effective dose against LTB4 biosynthesis in the rat RPAR pleurisy model. The format is functional.
Assay [14] has as its system Cavia porcellus. Put plainly: Intravenous effective dose against antigen induced bronchoconstriction in guinea pig. The format is functional.
In assay [15] the test system is Rattus norvegicus. Put plainly: Ex vivo inhibitory activity at an peroral dose of 1 mg/Kg against LTB4 biosynthesis in rat blood, after pretreatment period of 6 hr. It is filed as functional. The conditions noted are these: po.

One may read the inhibition as how much of the control response was suppressed. Usually inhibition in vivo stands for the change of the read-out against control, counted positive when it falls. `Cc1oc(-c2ccccc2)nc1CCOc1ccc(C(C)N(O)C(N)=O)cc1` (stereo unspecified): in assay [1], the inhibition at 1 µM came to 0%. The inhibition at 10 µM in [2] was 60%. Also, the inhibition in vivo at 25 mg/kg in [3] is 57%.
The term Inhibition denotes the relative decrease from the control value, in per cent. A lower Inhibition goes with a response near the control. In [4], `Cc1oc(-c2ccccc2)nc1COc1ccc(CN(O)C(N)=O)cc1` gave an Inhibition of 69%. For the same molecule, the inhibition in assay [5] turned out to be 0%; in [6] it was 84%; in [7] it was 36%. The inhibition at 1 µM in assay [1] was found to be 50%.
Turning to `Cc1oc(-c2ccc(C(F)(F)F)cc2)nc1COc1ccc(CN(O)C(N)=O)cc1`, the inhibition in vivo at 5 mg/kg in [8] stood at 69%. In addition, the inhibition at 1 µM in assay [1] is 34%. Further, in assay [7], the inhibition worked out at 45%.
Regarding `COc1cc(CN(O)C(N)=O)ccc1OCc1nc(-c2ccccc2)oc1C`, the inhibition at 1 µM in assay [1] turned out to be 19%. The inhibition at 10 µM in assay [2] worked out at 81%.
For the molecule `Cc1oc(-c2ccccc2)nc1COc1cc(F)cc(CN(O)C(N)=O)c1`, the inhibition in vivo at 5 mg/kg in assay [8] is 52%. In addition, in assay [1], the inhibition at 1 µM was 70%. In assay [7], this molecule registered an inhibition of 16%.
As for `Cc1oc(-c2ccccc2)nc1COc1cccc(C(C)N(O)C(N)=O)c1` (stereo unspecified), the inhibition at 1 µM in [1] is 10%. Besides, the inhibition at 10 µM in assay [2] turned out to be 80%.
Take `NC(=O)N(O)Cc1ccc(OCc2coc(-c3ccccc3)n2)cc1`: the inhibition in vivo at 5 mg/kg in [8] is 60%. For the same molecule, the inhibition at 1 µM in assay [1] is 58%. This molecule had an inhibition in assay [7] of 60%.
`Cc1oc(-c2ccccc2)nc1COc1cccc(CN(O)C(N)=O)c1` returned an Inhibition in [4] of 79%. In addition, the inhibition in assay [5] came out at 0%; in assay [7], 33%. Moreover, in assay [1], the inhibition at 1 µM worked out at 52%. The inhibition in vivo at 25 mg/kg in assay [3] amounted to 78%.
Turning to `Cc1oc(-c2ccc(C(F)(F)F)cc2)nc1COc1cc(F)cc(CN(O)C(N)=O)c1`, the inhibition at 1 µM in [1] was 15%. The inhibition at 10 µM in assay [2] was 85%.
As for `Cc1oc(-c2cc(C(F)(F)F)cc(C(F)(F)F)c2)nc1COc1cccc(CN(O)C(N)=O)c1`, in assay [1], the inhibition at 1 µM is 15%. Moreover, the inhibition at 10 µM in assay [2] came out at 57%.
As for `Cc1oc(-c2ccccc2)nc1COc1ccc(CN(O)C(N)=O)cc1F`, the Inhibition in assay [4] is 27%. The inhibition at 1 µM in assay [1] was 47%. In addition, the inhibition in assay [6] is 66%.
For the molecule `Cc1ccc(-c2nc(CCOc3ccc(CN(O)C(N)=O)cc3)c(C)o2)cc1`, the inhibition in vivo at 5 mg/kg in [8] came to 0%. The molecule also had an Inhibition in assay [4] of 48%. In assay [1], the inhibition at 1 µM turned out to be 40%.
On the same counts, the results for `NC(=O)N(O)Cc1ccc(OCCc2noc(-c3ccccc3)n2)cc1` are 59%, 19% and 70%.
Turning to `Cc1oc(-c2ccccc2)nc1COc1ccc(C(C)N(O)C(N)=O)cc1` (stereo unspecified), the inhibition at 1 µM in [1] is 17%. Further, the inhibition at 10 µM in assay [2] came to 57%.
As for `Cc1oc(-c2ccccc2)nc1CCOc1ccc(CN(O)C(N)=O)cc1F`, the Inhibition in assay [4] was found to be 58%. The inhibition at 1 µM in [1] came out at 71%. Moreover, the inhibition in assay [6] stood at 52%.
Take `COc1cc(CN(O)C(N)=O)cc(OCc2nc(-c3ccc(C(F)(F)F)cc3)oc2C)c1`: the inhibition at 1 µM in assay [1] worked out at 0%. Also, in assay [2], the inhibition at 10 µM was determined as 59%.
For orientation: ED50 means the dose that gives a 50% effect, or the effect in half of the subjects. In general, IC50 refers to the concentration that gives 50% inhibition. As to `CC(c1cc2ccccc2s1)N(O)C(N)=O` (stereo unspecified) [ZILEUTON], the ED50 in assay [9] turned out to be 10.2 mg/kg; in assay [11] it was 19 mg/kg; in assay [12], 46 mg/kg; in assay [13], 7.8 mg/kg. Moreover, the IC50 in [10] was determined as 3 µM.
For `Cc1oc(-c2ccc(C(F)(F)F)cc2)nc1COc1cccc(CN(O)C(N)=O)c1`, the inhibition in vivo at 5 mg/kg in assay [8] came to 55%. In [1], the inhibition at 1 µM stood at 48%. For the same molecule, the inhibition in [7] was 59%.
With `COc1ccc(-c2nc(CCOc3ccc(CN(O)C(N)=O)cc3)c(C)o2)cc1`, the Inhibition in assay [4] was found to be 38%. Moreover, the inhibition at 1 µM in [1] amounted to 57%. In assay [3], the inhibition in vivo at 25 mg/kg was determined as 32%.
`Cc1oc(-c2ccc(F)cc2)nc1COc1cccc(CN(O)C(N)=O)c1`: the inhibition at 1 µM in assay [1] amounted to 74%. The median effective dose (ED50) in [14] was found to be 5 mg/kg. This molecule also showed an inhibition in assay [7] of 37%.
As for `Cc1oc(-c2ccccc2)nc1CCOc1ccc(CN(O)C(N)=O)cc1`, in assay [1], the inhibition at 1 µM was 55%. Further, the inhibition in assay [6] came out at 0%; in assay [7] it was 69%. Further, the inhibition in vivo at 25 mg/kg in assay [3] stood at 79%.
As to `NC(=O)N(O)Cc1cccc(OCc2csc(-c3ccccc3)n2)c1`, in [11], it took a dose of 6 mg/kg to reach the 50% effect level (ED50). The inhibition came to 80% in assay [5] and 40% in assay [7]. Also, in [1], the inhibition at 1 µM worked out at 66%.
Regarding `Cc1oc(-c2ccc(C(F)(F)F)cc2)nc1CCOc1ccc(CN(O)C(N)=O)cc1`, in assay [15], the inhibition in vivo at 1 mg/kg turned out to be 57%. Moreover, in [6], the inhibition came out at 67%. In assay [13], this molecule yielded a 50% effective dose (ED50) of 5 mg/kg.

For the origin of these results see ChEMBL document CHEMBL1129782, “Azole phenoxy hydroxyureas as selective and orally active inhibitors of 5-lipoxygenase” (J Med Chem, 1996).
